This is an account of results in the METLIN SMRT retention time set (Domingo-Almenara et al. 2019).

This data set is described as follows: gradient 5% acetonitrile 3 min, to 50% in 2 min, to 85% in 15 min, held 3 min, 100 µL/min. Conditions: column: Zorbax Extend-C18 2.1 x 50 mm; eluents: water / acetonitrile, 0.1% formic acid. In short, it runs like this:
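Pure standards were analyzed in mixtures of ~100 molecules using HPLC coupled to a quadrupole time-of-flight mass spectrometer, in both positive and negative ionization mode. Separation used a Zorbax Extend-C18 column (2.1 × 50 mm, 1.8 μm) at 100 μL/min, with water and acetonitrile each containing 0.1% formic acid. Dead and dwell volumes were 40 μL and 900 μL, and data were collected over 3 months. Retention time was read from computationally picked adduct peaks, each inspected manually.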
On to `CC(C)CCC(=O)NCCc1nc2cccnc2n1-c1ccccc1`, for which the RP-LC retention time was determined as 717 s. To `CC(C)c1nncn1C1CCN(S(=O)(=O)c2ccccc2F)CC1` belongs 692 s; to `CCCn1cc(S(=O)(=O)Nc2ccc(C)cc2F)c2cccnc21`, 936 s; to `CNC(=O)[C@@H]1C[C@H](Oc2ccccc2)CN1C(=O)C1CCC1`, 680 s. To `CCc1ccc(-c2noc(CSc3nc4cc5c(cc4c(=O)n3CC3CCCO3)OCO5)n2)cc1` (stereo not drawn) belongs 1280 s; to `CCN1C(=O)c2ccccc2Oc2ccc(C(=O)NCc3ccc(N(C)C)cc3)cc21`, 670 s; to `O=C(N[C@H]1C[C@@H]2C[C@H]1N(S(=O)(=O)c1cccs1)C2)c1ccccc1`, 833 s. The molecule `Cn1c(=O)c2c(ncn2CCCNCC(O)c2cc(O)cc(O)c2)n(C)c1=O` (stereo not drawn) came in with an RP-LC retention time of 952 s. In the case of `O=C(NCc1cccnc1-c1ccc(F)cc1)c1cc(F)ccc1Cl` it was 700 s.

`O=C(Nc1nc2c(s1)CN(C(=O)c1cc(-c3ccc(F)cc3)n[nH]1)CC2)c1ccco1`: the RP-LC retention time was found to be 717 s.

`COc1ccc(Nc2c(-c3ccc(C)cc3)nc3ncccn23)cc1` yielded an RP-LC retention time of 720 s.

The molecule `Cc1ccc(CNC(=O)c2ccc(-c3cccs3)nc2)o1` yielded an RP-LC retention time of 869 s. To `CCCN1C(=O)COc2cc(-c3noc(C(=O)NC4CC4)n3)ccc21` belongs 841 s; to `O=C(CCNc1cnc2cnccn12)NCc1ccc2c(c1)OCO2`, 564 s.

With `CC(=O)Nc1nc(N2CCC(C(=O)NCc3ccccc3)CC2)sc1C(=O)N1CCCC1`, the RP-LC retention time is 699 s. To `COc1ccc(NC(=O)Cn2c(C)cc(-c3nnc(C4CC4)o3)c2C)cc1` belongs 779 s; to `CCc1nnc(-c2cc(NC(=O)c3ccc4nc[nH]c4c3)c(C)s2)o1`, 632 s.

The molecule `Cc1ccc(NC(=O)Cc2nnc(-c3cnccn3)o2)c(C)c1` yielded an RP-LC retention time of 700 s. In the case of `CCOC(=O)C1CCN(c2ncccc2-c2nnc(-c3ccc(Cl)cc3)o2)CC1` it was 1240 s; in that of `CCn1c(=O)n(CC)c2cc(N3CCCC3)c(NC(=O)NCc3ccc(F)cc3)cc21`, 648 s; in that of `CCOC(=O)c1nc(NCc2ccc(OC)cc2OC)c2ccccc2n1`, 768 s. In the case of `COc1ccc(-c2cc3n(n2)CCCN(C(=O)c2ccco2)C3)cc1` it was 758 s; in that of `Nc1c2ccccc2nc2ccccc12`, 637 s. `CCc1ccccc1NC(=O)NCC(c1cccnc1)c1c[nH]c2ccccc12` (stereo not drawn) registered an RP-LC retention time of 669 s.

`O=C(NCC(=O)N1CCCc2ccccc21)c1ccc(Cl)cc1`: the RP-LC retention time was 835 s. On to `Cc1ccccc1CC(=O)NC(CC(C)C)C(=O)Nc1nc2ccccc2[nH]1` (stereo not drawn), for which the RP-LC retention time stood at 763 s. In the case of `Cc1cc(C)n(CCC(=O)N2CCCn3ccnc3C2C2CCCC2)n1` (stereo not drawn) it was 604 s. To `Cc1ccc(Cn2c(=O)c(N3CCN(C(=O)NC(C)C)CC3)nc3ccccc32)cc1` belongs 981 s; to `CC(=O)c1cccc(NC(=O)CCc2c(C)nn(-c3cc(N(C)C)ncn3)c2C)c1`, 731 s; to `CCN(CC)CCCn1c(C)cc2c(c1=O)C(c1ccccc1OC)C(C#N)=C(N)O2` (stereo not drawn), 626 s. To `COc1ccc(-c2noc(Cc3nnc(-c4cccc(C)c4)o3)n2)cc1OC` belongs 945 s; to `CN1c2cc(C(=O)Nc3cccc(C(F)(F)F)c3)ccc2C(=O)N2CCCCC21` (stereo not drawn), 930 s; to `O=C(Nc1cccc(F)c1)N1CCCC1c1nc(-c2ccc(F)cc2F)no1` (stereo not drawn), 998 s.
